Assay results reported in paper PMC4770715, “LIM kinase inhibitors disrupt mitotic microtubule organization and impair tumor cell proliferation” (Oncotarget, 2015).

How the values were obtained:
Experiment in all cases: biochemical
Set-up in all cases: KINOMEscan active-site competition binding, percent of control (100 = no competition)
Details in all cases: competition binding, percent control
MKK7 = biological target: T1, MKK7 (Homo sapiens, UniProt O14733)
T1 construct: gene MAP2K7

TESK1 = TESK1 (Homo sapiens, UniProt Q15569)
GSK3B = GSK3B (Homo sapiens, UniProt P49841)
BMPR2 = BMPR2 (Homo sapiens, UniProt Q13873)
[1] = biological target: T2, RSK4(Kin.Dom.1-N-terminal) (Homo sapiens, UniProt Q9UK32)
T2 construct: gene RPS6KA6; Kin.Dom.1-N-terminal
T2 sequence (Q9UK32 whole entry): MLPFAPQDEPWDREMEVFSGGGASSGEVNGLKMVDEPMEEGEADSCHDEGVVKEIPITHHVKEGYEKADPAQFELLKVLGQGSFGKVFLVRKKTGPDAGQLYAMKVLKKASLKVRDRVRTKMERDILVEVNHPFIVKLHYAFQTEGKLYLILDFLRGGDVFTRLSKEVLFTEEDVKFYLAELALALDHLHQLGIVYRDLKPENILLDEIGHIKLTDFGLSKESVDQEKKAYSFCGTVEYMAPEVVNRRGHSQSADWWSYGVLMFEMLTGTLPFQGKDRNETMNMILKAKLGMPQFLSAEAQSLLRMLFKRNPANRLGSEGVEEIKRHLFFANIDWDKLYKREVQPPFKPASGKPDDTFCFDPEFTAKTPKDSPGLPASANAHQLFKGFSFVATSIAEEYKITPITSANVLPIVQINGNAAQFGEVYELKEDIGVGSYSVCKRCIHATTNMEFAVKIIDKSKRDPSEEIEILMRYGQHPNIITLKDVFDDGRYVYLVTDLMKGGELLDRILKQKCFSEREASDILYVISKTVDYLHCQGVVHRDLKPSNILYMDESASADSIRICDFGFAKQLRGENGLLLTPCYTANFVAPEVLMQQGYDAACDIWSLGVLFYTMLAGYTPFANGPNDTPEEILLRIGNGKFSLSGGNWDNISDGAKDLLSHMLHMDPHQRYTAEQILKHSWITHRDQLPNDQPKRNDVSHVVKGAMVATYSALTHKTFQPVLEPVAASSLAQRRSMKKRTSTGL

RIPK2 = RIPK2 (Homo sapiens, UniProt O43353)
RIPK2, sequence (O43353 whole entry): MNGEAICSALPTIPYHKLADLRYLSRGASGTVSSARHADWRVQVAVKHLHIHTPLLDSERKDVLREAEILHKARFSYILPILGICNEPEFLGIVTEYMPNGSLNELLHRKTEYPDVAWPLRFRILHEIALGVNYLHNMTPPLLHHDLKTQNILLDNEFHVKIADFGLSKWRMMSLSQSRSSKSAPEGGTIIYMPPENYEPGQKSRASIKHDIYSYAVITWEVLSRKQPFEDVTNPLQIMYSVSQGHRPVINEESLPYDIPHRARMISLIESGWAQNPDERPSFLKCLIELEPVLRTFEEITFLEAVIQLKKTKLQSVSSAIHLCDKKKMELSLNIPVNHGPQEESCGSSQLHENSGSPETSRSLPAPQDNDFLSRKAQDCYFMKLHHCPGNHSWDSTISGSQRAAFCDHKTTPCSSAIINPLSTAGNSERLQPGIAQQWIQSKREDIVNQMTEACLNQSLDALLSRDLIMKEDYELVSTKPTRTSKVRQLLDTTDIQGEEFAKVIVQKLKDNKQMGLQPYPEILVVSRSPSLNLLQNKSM

IKK-epsilon = biological target: T3, IKK-epsilon (Homo sapiens, UniProt Q14164)
T3 construct: gene IKBKE
T3 sequence (Q14164 whole entry): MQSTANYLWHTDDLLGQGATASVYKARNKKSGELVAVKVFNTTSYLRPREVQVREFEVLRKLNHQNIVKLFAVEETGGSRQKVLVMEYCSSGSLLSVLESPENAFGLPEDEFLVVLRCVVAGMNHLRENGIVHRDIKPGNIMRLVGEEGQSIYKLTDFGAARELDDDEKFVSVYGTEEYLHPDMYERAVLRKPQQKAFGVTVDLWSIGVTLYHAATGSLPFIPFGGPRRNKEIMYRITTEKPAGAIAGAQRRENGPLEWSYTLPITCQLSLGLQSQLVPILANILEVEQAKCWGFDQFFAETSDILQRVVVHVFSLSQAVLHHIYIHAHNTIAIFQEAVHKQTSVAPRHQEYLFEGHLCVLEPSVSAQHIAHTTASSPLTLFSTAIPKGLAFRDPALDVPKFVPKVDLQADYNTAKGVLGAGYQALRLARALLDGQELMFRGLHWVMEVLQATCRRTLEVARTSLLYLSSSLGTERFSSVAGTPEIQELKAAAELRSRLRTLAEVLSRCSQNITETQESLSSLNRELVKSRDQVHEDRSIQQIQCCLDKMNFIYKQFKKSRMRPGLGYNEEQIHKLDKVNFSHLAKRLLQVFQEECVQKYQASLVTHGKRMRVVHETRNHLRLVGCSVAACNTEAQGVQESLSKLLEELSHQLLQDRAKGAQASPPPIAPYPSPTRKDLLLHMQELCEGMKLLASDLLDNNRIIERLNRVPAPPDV

PKN2 = PKN2 (Homo sapiens, UniProt Q16513)
TNK2 = TNK2 (Homo sapiens, UniProt Q07912)
KIT(V559D,T670I) = KIT(V559D,T670I) (Homo sapiens, UniProt P10721, T670I/V559D)
KIT(V559D,T670I), sequence (P10721 whole entry V559D/T670I): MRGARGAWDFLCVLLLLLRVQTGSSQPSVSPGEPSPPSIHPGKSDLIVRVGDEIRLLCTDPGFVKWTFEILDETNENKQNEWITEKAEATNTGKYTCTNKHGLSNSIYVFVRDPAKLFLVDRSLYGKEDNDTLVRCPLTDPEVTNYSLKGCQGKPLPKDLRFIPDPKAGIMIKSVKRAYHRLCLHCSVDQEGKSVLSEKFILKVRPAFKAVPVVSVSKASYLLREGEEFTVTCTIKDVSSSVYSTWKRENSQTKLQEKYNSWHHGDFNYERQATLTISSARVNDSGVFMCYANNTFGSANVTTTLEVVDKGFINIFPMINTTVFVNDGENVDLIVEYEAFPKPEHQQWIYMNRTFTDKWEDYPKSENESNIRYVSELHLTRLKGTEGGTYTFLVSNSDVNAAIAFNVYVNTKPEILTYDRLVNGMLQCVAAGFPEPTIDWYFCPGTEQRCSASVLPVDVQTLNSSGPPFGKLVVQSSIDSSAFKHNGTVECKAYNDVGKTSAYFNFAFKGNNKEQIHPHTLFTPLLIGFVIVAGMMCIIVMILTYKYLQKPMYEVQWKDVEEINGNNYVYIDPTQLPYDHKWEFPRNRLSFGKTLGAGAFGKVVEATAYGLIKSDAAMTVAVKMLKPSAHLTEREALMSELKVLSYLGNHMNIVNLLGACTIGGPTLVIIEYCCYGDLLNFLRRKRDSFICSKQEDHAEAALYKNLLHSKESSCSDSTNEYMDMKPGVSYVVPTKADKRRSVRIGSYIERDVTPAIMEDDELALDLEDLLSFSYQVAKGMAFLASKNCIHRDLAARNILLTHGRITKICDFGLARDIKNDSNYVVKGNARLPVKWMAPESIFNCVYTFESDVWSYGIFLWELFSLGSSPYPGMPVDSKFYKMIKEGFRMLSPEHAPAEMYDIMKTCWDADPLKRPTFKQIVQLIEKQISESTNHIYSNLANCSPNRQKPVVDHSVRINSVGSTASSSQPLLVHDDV

PIP5K1A = PIP5K1A (Homo sapiens, UniProt Q99755)
EGFR(L861Q) = EGFR(L861Q) (Homo sapiens, UniProt P00533, L861Q)
TGFBR2 = TGFBR2 (Homo sapiens, UniProt P37173)
MELK = MELK (Homo sapiens, UniProt Q14680)
MELK, sequence (Q14680 whole entry): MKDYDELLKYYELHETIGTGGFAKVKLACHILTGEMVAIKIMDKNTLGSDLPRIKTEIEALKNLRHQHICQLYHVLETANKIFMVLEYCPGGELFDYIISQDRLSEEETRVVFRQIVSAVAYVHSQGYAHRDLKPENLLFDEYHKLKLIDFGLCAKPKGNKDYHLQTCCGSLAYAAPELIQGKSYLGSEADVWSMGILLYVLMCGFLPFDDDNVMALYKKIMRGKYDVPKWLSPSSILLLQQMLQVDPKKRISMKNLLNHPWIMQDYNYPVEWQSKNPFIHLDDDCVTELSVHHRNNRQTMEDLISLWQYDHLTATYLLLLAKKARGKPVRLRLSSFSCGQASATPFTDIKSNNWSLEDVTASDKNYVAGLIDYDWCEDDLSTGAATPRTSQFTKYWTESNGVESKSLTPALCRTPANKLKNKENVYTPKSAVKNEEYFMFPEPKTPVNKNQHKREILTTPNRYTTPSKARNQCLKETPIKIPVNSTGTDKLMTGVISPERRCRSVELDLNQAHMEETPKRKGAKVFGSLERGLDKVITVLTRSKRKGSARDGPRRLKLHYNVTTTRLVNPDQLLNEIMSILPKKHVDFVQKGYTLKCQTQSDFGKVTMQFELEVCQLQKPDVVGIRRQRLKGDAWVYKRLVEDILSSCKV

PRKCE = PRKCE (Homo sapiens, UniProt Q02156)
CDK11 = biological target: T4, CDK11 (Homo sapiens, UniProt Q9BWU1)
T4 construct: gene CDK19

PLK1 = PLK1 (Homo sapiens, UniProt P53350)
BRAF(V600E) = BRAF(V600E) (Homo sapiens, UniProt P15056, V600E)
BRAF(V600E), sequence (P15056 whole entry V600E): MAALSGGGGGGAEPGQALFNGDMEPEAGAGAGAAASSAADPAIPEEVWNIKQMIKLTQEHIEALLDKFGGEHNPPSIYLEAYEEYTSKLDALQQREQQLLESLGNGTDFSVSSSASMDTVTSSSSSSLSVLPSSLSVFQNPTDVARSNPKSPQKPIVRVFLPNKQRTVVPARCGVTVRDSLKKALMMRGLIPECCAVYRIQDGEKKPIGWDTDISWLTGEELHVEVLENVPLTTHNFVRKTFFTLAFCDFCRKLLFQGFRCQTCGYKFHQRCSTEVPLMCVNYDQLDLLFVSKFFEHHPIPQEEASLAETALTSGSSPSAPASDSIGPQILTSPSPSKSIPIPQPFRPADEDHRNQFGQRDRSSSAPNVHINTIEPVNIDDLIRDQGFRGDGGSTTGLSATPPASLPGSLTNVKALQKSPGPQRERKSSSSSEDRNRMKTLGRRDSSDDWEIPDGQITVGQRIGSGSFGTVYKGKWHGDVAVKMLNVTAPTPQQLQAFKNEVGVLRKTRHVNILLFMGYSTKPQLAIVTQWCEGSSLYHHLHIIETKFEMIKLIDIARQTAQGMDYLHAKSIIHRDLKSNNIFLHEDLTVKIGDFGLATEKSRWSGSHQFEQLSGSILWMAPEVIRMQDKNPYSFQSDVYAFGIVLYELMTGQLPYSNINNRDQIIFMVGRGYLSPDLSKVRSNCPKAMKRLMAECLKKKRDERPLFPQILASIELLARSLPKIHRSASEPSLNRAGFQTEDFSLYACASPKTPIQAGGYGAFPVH

CLK2 = CLK2 (Homo sapiens, UniProt P49760)
PRKD2 = PRKD2 (Homo sapiens, UniProt Q9BZL6)
PCTK3 = biological target: T5, PCTK3 (Homo sapiens, UniProt Q07002)
T5 construct: gene CDK18

KIT = KIT (Homo sapiens, UniProt P10721)
KIT, sequence (P10721 whole entry): as the sequence (P10721 whole entry V559D/T670I) above, with D559V, I670T counted along it

DLK = biological target: T6, DLK (Homo sapiens, UniProt Q12852)
T6 construct: gene MAP3K12

T1 sequence (O14733 whole entry): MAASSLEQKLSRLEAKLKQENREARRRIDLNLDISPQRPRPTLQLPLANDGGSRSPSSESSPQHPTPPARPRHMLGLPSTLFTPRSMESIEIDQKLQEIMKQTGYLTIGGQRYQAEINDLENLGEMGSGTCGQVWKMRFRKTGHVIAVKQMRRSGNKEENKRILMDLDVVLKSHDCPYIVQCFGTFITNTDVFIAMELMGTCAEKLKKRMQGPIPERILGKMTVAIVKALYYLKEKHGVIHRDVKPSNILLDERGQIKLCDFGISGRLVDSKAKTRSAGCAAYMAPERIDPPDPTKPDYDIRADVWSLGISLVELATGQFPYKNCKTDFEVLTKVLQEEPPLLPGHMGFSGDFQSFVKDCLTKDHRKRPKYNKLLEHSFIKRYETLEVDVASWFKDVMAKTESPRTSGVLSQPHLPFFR

SMILES | remaining binding at 10 µM (MKK7) [%] | remaining binding at 10 µM (TESK1) [%] | remaining binding at 10 µM (GSK3B) [%] | remaining binding at 10 µM (BMPR2) [%] | remaining binding at 10 µM [1] [%] | remaining binding at 10 µM (RIPK2) [%] | remaining binding at 10 µM (IKK-epsilon) [%] | remaining binding at 10 µM (PKN2) [%] | remaining binding at 10 µM (TNK2) [%] | remaining binding at 10 µM (KIT(V559D,T670I)) [%] | remaining binding at 10 µM (PIP5K1A) [%] | remaining binding at 10 µM (EGFR(L861Q)) [%] | remaining binding at 10 µM (TGFBR2) [%] | remaining binding at 10 µM (MELK) [%] | remaining binding at 10 µM (PRKCE) [%] | remaining binding at 10 µM (CDK11) [%] | remaining binding at 10 µM (PLK1) [%] | remaining binding at 10 µM (BRAF(V600E)) [%] | remaining binding at 10 µM (CLK2) [%] | remaining binding at 10 µM (PRKD2) [%] | other results
COc1ccc(-c2cnccc2-c2cnc(NC(=O)C(C)C)s2)c(C(F)(F)F)c1 [CRT0105446, N-{5-[3-(4-Methoxy-2-trifluoromethyl-phenyl)-pyridin-4-yl]-hiazol-2-yl}-isobutyramide] | 97 | 96 | 82 | 100 | 59 | 80 | 85 | 96 | 91 | 74 | 100 | 100 | 94 | 100 | 72 | 34 | 100 | 64 | 78 | 74 | remaining binding at 10 µM (PCTK3): 7.7%; remaining binding at 10 µM (KIT): 55%; remaining binding at 10 µM (DLK): 100%
Cc1ccc(-c2cnccc2-c2cnc(Nc3ccc(O)cc3)s2)c(Cl)c1 [CRT0105950, 4-{5-[3-(2-Chloro-4-methyl-phenyl)-pyridin-4-yl]-thiazol-2-ylamino}-phenol] | 38 | 20 | 86 | 8.9 | 0.4 | 18 | 41 | 26 | 25 | 36 | 82 | 65 | 18 | 11 | 55 | 2.3 | 100 | 83 | 0.45 | 26 | remaining binding at 10 µM (PCTK3): 68%; remaining binding at 10 µM (KIT): 3.2%; remaining binding at 10 µM (DLK): 100%
